What was measured:
RPA-ssDNA interaction = molecular target: T1, RPA-ssDNA interaction (Homo sapiens, UniProt P15927+P27694+P35244); experiment: FRET titration of the RPA-Cy3-dT30-Cy5 complex; type: binding
T1 construct: made in house
Source text: Compounds ‘1’ and ‘6’ inhibit RAD52 binding to and annealing of the RPA-coated ssDNA: In the cell, ssDNA is typically found in complex with Replication protein A (RPA), which is the major eukaryotic ssDNA-binding protein essential for DNA replication, repair and recombination (Wold, 1997, Oakley and Patrick, 2010, Chen and Wold, 2014). The RPA-ssDNA complex is a natural substrate for the RDA52-mediated strand annealing. To confirm that compounds ‘1’ and ‘6’ can inhibit the RAD52 binding to and annealing of the RPA-coated ssDNA we added stoichiometric amounts of RPA (1 RPA per 30 nucleotides of ssDNA) to the FRET-based ssDNA binding/wrapping and ssDNA annealing experiments described above. RPA binds ssDNA with high affinity and extends the ssDNA to its contour length. In our assays such an extension manifests as a distinct FRET state of ˜0.3, which is readily distinguished from a FRET state of ˜0.48 of free Cy3-dT30-Cy5 ssDNA, as well as ˜0.63 FRET of the stoichiometric ssDNA-RPA-RAD52 complex (see FIG. 2 Supplement 1 and (Grimme and Spies, 2011) for details). […] Both, however, inhibited the RAD52 binding to and wrapping of RPA-coated ssDNA with IC50 values identical to those determined without RPA (FIG. 2e and FIG. 3e).
where FRET0 is the initial FRET value of RAD52-ssDNA complex in the absence of the compound and FRETmin is the FRET value at complete inhibition. FRET values were calculated as an average of three or more independent annealing reactions plotted against the concentration of the compound. Inhibition of the RAD52-dsDNA interaction was assayed in a similar experiment, except the stoichiometric complexes containing 1 nM molecules of Cy3-Oligo28-Cy5 duplex DNA and 10 nM RAD52. […] In all experiments, the FRET values for each data point were corrected for the effects of the compounds on the respective substrate in the absence of RAD52.

RPA = molecular target: T2, RPA (Homo sapiens, UniProt P15927+P27694+P35244); experiment: WaterLOGSY NMR analysis of compound binding to RPA; settings: 20 or 40 μM compound, 3.3 μM RPA
T2 construct: made in house
T2 sequence (P27694 whole entry): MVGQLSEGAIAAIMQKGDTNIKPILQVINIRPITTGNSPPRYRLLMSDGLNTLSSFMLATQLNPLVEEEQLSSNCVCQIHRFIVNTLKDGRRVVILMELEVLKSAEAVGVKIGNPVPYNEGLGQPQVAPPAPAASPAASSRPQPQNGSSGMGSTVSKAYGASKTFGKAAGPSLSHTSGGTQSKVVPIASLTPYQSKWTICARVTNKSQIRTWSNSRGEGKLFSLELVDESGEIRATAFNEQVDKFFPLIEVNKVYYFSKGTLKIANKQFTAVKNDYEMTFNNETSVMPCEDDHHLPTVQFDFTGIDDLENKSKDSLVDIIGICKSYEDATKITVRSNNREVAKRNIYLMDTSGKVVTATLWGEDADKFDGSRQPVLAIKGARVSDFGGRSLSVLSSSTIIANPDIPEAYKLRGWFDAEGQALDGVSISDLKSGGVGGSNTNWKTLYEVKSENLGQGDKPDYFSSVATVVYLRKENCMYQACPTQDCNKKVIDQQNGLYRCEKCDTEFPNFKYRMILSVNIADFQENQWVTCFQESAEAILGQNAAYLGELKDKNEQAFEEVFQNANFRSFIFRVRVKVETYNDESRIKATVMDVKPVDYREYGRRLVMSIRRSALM
T2 sequence (P15927 whole entry): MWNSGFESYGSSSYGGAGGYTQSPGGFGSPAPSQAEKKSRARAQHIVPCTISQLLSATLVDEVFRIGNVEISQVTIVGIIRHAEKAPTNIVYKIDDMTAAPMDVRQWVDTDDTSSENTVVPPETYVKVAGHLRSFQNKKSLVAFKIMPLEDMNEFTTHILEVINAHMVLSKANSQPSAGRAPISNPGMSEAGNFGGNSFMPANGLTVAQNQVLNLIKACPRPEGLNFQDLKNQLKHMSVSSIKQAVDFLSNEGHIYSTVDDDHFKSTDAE
T2 sequence (P35244 whole entry): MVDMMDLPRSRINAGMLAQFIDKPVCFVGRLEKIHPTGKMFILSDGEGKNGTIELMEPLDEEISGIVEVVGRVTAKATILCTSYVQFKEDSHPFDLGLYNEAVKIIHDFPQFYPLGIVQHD
Source text: Compounds ‘1’ and ‘6’ physically interact with RAD52: To confirm that the selected compounds bind RAD52, we employed water-ligand observation with gradient spectroscopy (WaterLOGSY), an NMR technique, which is based on transfer of magnetization from bulk water to the protein-bound compound of interest (Dalvit et al., 2001, Dalvit et al., 2000). In WaterLOGSY spectrum, if a compound binds to a protein, the compound will receive negative nuclear Overhauser effects (NOEs) due to the slow tumbling of the protein-compound complex, leading to a positive WaterLOGSY peak.
WaterLOGSY NMR analysis of the compound binding to RAD52 and RPA proteins: Compound binding to RAD52 and RPA proteins was analyzed using water-ligand observation with gradient spectroscopy (WaterLOGSY) NMR experiments (Dalvit et al., 2001, Dalvit et al., 2000). The WaterLOGSY spectra of compounds in the presence of RAD52 or RPA were acquired using a water NOE mixing time of 1 s and a T2 relaxation filter of 50 ms just before data acquisition to suppress the broad signals derived from protein. The protein buffer used in the experiments contains 10 mM Tris-d11, 75 mM KCl, 0.25 mM EDTA, pH 7.5, and 10% D20. All NMR data were acquired on a Bruker Avance II 800 MHz NMR spectrometer equipped with a sensitive cryoprobe and recorded at 25° C. The ^1H chemical shifts were referenced to 2,2-dimethyl-2-silapentane-5-sulfonate (DSS). NMR spectra were processed using NMR Pipe (Delaglio et al., 1995) and analysed using NMR View (Johnson and Blevins, 1994).

GM01604 cells = experiment: Neutral comet assay of RAD52/MUS81-dependent DSB formation; type: cell-based, human; settings: for IC50 for decrease of mean tail moment following HU treatment, in words: 2 mM HU + 300 nM UCN01, 6 h
Source text: Inhibiting the RAD52-ssDNA interaction interferes with RAD52/MUS81-mediated DSB formation essential for the replication fork recovery in check point deficient cells: In human cells, RAD52 may perform both limited recombination-mediator function in the RAD51-dependent pathway (Lok and Powell, 2012, Benson et al., 1998, Feng et al., 2011) as well as additional RAD51-independent roles (Lok and Powell, 2012, Murfuni et al., 2013, Mcllwraith and West, 2008). One of these HR independent roles of RAD52 involves stimulation of MUS81/EME1-dependent DSB formation at the replication forks stalled by hydroxyurea (HU) treatment in the absence of cellular checkpoints (Murfuni et al., 2013). Since the most likely targets of these MUS81/EME1/RAD52-dependent DSBs are the DNA structures produced by RAD52 (Murfuni et al., 2013), we expected this activity to depend on the RAD52-ssDNA interaction (FIG. 5a). To confirm this, we assessed DSB formation in the checkpoint deficient cells using the neutral comet assay. These assays monitor MUS81/EME1/RAD52-dependent DSB formation upon induction of replication stress by HU treatment in primary fibroblasts immortalized by hTERT expression and treated with UNC01 to inhibit CHK1 kinase (FIG. 5b). […] Importantly, these inhibitors recapitulate RAD52 depletion by inhibiting RAD52-MUS81-dependent DSBs at stalled replication forks (FIG. 5a-b). […] It also confirms our previous supposition that the target of MUS81/EME1-mediated cleavage under these conditions are indeed the structures annealed by RAD52. […] We previously reported that concomitant depletion of RAD52 and MUS81 gives raise to the MUS81-independent DSBs (Murfuni et al., 2013). […] Furthermore, accumulation of anaphase bridges, a phenotype associated with impairment of the RAD52-independent mitotic function of MUS81/EME1 was completely unaffected by inhibition of RAD52, whereas it was strongly stimulated by MUS81 silencing (FIG. 5 Supplement 1).
Neutral Comet Assay: To induce RAD52-MUS81-dependent cleavage at arrested replication forks (Murfuni et al., 2013), hTERT-immortalized wild-type human fibroblasts (GM01604) were treated with 2 mM HU and 300 nM UCN01 for 6 h, in the presence and absence of varying concentrations of ‘1’ or ‘6’. Where indicated, the GM01604 cells were cells were transfected with siRNAs directed against GFP (Ctrl), or against RAD52 (Qiagen) 48 hours prior to induction of the replication stress and/or inhibitor treatment. After that cells were subjected to neutral comet assay as described in Murfuni et al (Murfuni et al., 2013). Slides were analyzed by a computerized image analysis system (Comet IV, Perceptive UK). To assess the quantity of DNA damage, computer-generated tail moment values (tail length×fraction of total DNA in the tail) were used. Apoptotic cells (smaller comet head and extremely larger comet tail) were excluded from the analysis to avoid artificial enhancement of tail moment. A minimum of 100 cells were analyzed for each compound concentration point.

T1 sequence (P27694 whole entry): as the sequence (P27694 whole entry) above
T1 sequence (P15927 whole entry): as the sequence (P15927 whole entry) above
T1 sequence (P35244 whole entry): as the sequence (P35244 whole entry) above

SMILES | Effect on the RPA-ssDNA interaction (RPA-ssDNA interaction) | Binding to RPA by WaterLOGSY (RPA) | Reduction in DSBs compared with siRNA depletion of RAD52 (GM01604 cells; 500 nM compound, HU + UCN01) | IC50 for decrease of mean tail moment following HU treatment, in words (GM01604 cells) | Concentration sufficient to achieve the same level in DSB reduction as siRNA treatment (GM01604 cells; HU + UCN01) | DSB formation in MUS81-depleted cells (GM01604 cells; replication stress induced by CHK1 inhibition) | DSB formation in RAD52-depleted cells (GM01604 cells; RAD52 siRNA plus compound)
Oc1cc(O)c2c(c1)O[C@H](c1cc(O)c(O)c(O)c1)[C@H](O)C2 [Compound ‘1’, (−)-Epigallocatechin] | nor interferes with the RPA-ssDNA interaction | neither binds to RPA | same effect of reduction in DSBs as siRNA depletion of RAD52 | mid nanomolar to low micromolar | 1 µM | appearance of the MUS81-independent DSBs | –
O=C(O[C@@H]1Cc2c(O)cc(O)cc2O[C@@H]1c1cc(O)c(O)c(O)c1)c1cc(O)c(O)c(O)c1 [Compound 6, Epigallocatechin-3-monogallate] | does not interfere with the RPA-ssDNA interaction | binds to RPA | – | mid nanomolar to low micromolar | higher concentration | – | failed to further decrease the formation of DNA breaks

From US20180209956A1, “HTS Assay for Identifying Small Molecule Inhibitors of RAD52 and Uses of Identified Small Molecule Inhibitors for Treatment and Prevention of BRCA-Deficient Malignancies” (University of Iowa Research Foundation, priority 2015, published 2018)
